From US20190047966A1, “NOVEL COMPOUND AND PHARMACOLOGICALLY ACCEPTABLE SALT THEREOF” (MEIJI SEIKA PHARMA CO., LTD., priority 2016, published 2019)
Where two headings read alike, the source gives them in different places.

How the values were obtained:
[1] = molecular target: T1, human histamine H4 receptor (Homo sapiens, UniProt Q9H3N8); test: Evaluation of Human H4 Receptor Affinity ([3H]histamine binding); conditions: inhibition constant Ki, CHO-K1 membrane preparation
T1 construct: purchased PerkinElmer Inc; host or cells: CHO-K1
Summary of the method: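 Membranes from CHO-K1 cells expressing human H4 receptor incubated with 8.2 nM [3H]histamine and compound for 90 min at 25 °C in 50 mM Tris-HCl pH 7.4, 1.25 mM EDTA, then filtered and counted. Nonspecific binding defined with 1.0 μM histamine; Ki from IC50 by Cheng-Prusoff using Kd 5.7 nM.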

[2] = molecular target: T1, human histamine H4 receptor; test: Evaluation of H4 Receptor Function ([35S]GTPγS binding); assay type: biochemical
Method: The antagonistic effect was evaluated by the method described below. Membrane preparation from recombinant CHO-K1 cell expressing the human histamine H4 receptor (PerkinElmer Inc.), 10 μM GDP, 0.1 μM histamine, and the compounds dissolved in DMSO were reacted at 30° C. for 20 minutes in a buffering solution containing 20 mM HEPES, pH 7.4, 100 mM NaCl, 10 mM MgCl2, 1 mM DTT, and 1 mM EDTA on an assay plate. Thereafter, SPA beads (Amersham plc) were added, followed by incubation for 60 minutes, and further 0.3 nM [^35S]GTPγS (PerkinElmer Inc.) was added, followed by incubation for 30 minutes.

[3] = molecular target: T2, human histamine H1 receptor (Homo sapiens, UniProt P35367); test: Evaluation of Human H1 Receptor Affinity ([3H]pyrilamine binding); set-up: purchased PerkinElmer Inc; host or cells: CHO-K1; conditions: inhibition constant Ki, CHO-K1 membrane preparation
Summary of the method: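 Ki values are Cheng-Prusoff conversions of IC50 (Kd 1.1 nM) from radioligand displacement of 1.2 nM [3H]pyrilamine, with 1.0 μM pyrilamine defining nonspecific binding.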

[4] = molecular target: T2, human histamine H1 receptor; test: Evaluation of Human H1 Receptor Function (GeneBLAzer H1-NFAT-bla HEK 293T cells); assay type: cell-based; conditions: histamine 30 nM, read-out: Evaluation of H1 Receptor Function (IC50 value, antagonistic effect)
Method: Test Example 3: Evaluation of Human H1 Receptor Function
The antagonistic effect was evaluated by the method described below. GeneBLAzer® H1-NFAT-bla HEK 293T-cells (Invitrogen Corporation, recombinant cells expressing the human histamine H1 receptor) were incubated at 37° C. for 30 minutes in the presence of the test compounds dissolved in DMSO in a high glucose Dulbecco's Modified Eagle Medium (GlutaMAX, containing 10% fetal bovine serum, 100 μM nonessential amino acids, 25 mM HEPES, 100 U/mL penicillin, and 100 μg/mL streptomycin), and histamine was added such that the final concentration became 30 nM, followed by further incubation for 4.5 hours. Then, a mixture of LiveBLAzer™ FRET-B/G Loading Kit (Invitrogen Corporation) and Solution D (Invitrogen Corporation) was added, followed by leaving to stand at room temperature for 2 hours under shaded conditions. Thereafter, the fluorescence intensity was measured under two conditions of 400 nm/460 nm and 400 nm/535 nm (excitation light/fluorescence) by using a multilabel counter (EnVision: PerkinElmer Inc.). The 50% inhibitory concentration (IC50 value) was calculated in accordance with (measured value−blank measured value at 400 nm/460 nm)/(measured value−blank measured value at 400 nm/535 nm) of each test sample.

[5] = read-out: Evaluation of H4 Receptor Affinity
[6] = [35S]GTPγS binding, CHO-K1 membrane, 0.1 μM histamine, read-out: Evaluation of H4 Receptor Function (IC50 value, antagonistic effect)

T1 sequence (Q9H3N8 whole entry): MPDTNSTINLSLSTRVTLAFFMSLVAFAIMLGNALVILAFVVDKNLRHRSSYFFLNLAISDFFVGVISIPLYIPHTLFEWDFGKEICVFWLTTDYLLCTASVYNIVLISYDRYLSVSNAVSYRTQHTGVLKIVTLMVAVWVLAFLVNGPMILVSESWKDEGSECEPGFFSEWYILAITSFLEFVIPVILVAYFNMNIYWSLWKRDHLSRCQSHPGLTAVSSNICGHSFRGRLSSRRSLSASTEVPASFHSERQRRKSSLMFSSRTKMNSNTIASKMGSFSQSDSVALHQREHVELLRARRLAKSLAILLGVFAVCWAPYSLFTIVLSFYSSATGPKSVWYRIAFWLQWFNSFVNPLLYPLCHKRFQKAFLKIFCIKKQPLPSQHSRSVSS
T2 sequence (P35367 whole entry): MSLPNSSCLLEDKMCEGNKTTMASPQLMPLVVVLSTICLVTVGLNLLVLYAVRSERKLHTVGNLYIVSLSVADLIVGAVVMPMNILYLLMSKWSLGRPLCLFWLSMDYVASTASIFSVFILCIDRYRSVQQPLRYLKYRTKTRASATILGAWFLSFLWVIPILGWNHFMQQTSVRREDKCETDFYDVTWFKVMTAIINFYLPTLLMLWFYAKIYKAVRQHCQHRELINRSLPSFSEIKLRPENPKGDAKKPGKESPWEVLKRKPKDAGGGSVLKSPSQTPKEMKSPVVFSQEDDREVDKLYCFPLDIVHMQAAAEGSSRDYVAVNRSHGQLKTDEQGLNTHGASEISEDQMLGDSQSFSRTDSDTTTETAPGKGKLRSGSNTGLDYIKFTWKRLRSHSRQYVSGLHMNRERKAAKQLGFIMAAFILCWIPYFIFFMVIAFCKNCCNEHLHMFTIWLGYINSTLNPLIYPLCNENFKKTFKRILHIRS

In the case of `Nc1nc2c(c(N3CCN(CCOCc4cc(C(=O)O)ccc4F)CC3)n1)CCc1cc(OCc3ccc(Cl)cc3)ccc1-2` [129(b), 3-((2-(4-(2-amino-8-((4-chlorobenzyl)oxy)-5,6-dihydrobenzo[h]quinazolin-4-yl)piperazin-1-yl)ethoxy)methyl)-4-fluorobenzoic acid], the Ki [1, 5] is reported as 100 to 500 nM, the IC50 [2, 6] is reported as 200 to 2000 nM and the Ki [3] is reported as < 100 nM. The IC50 [4] was < 200 nM.
In the case of `CN1CCN(c2nc(N)nc3c2CCc2cc(OCc4ccc(Cl)cc4)ccc2-3)CC1` [Example 1, 8-((4-chlorobenzyl)oxy)-4-(4-methylpiperazin-1-yl)-5,6-dihydrobenzo[h]quinazolin-2-amine], the Ki [1, 5] is reported as < 100 nM, the IC50 [2, 6] is reported as < 200 nM and the Ki [3] is reported as < 100 nM. The IC50 [4] was < 200 nM.
`CN1CCN(c2nc(N)nc3c2CCc2cc(OCc4ccccc4)ccc2-3)CC1` [Example 2, 8-(benzyloxy)-4-(4-methylpiperazin-1-yl)-5,6-dihydrobenzo[h]quinazolin-2-amine] was tested, and the Ki ([1]; Evaluation of H4 Receptor Affinity) was < 100 nM, the IC50 [2] was < 200 nM and the Ki [3] was < 100 nM. The IC50 [4] was < 200 nM.
In the case of `CN1CCN(c2nc(N)nc3c2CCc2cc(OCc4ccsc4)ccc2-3)CC1` [Example 3, 4-(4-methylpiperazin-1-yl)-8-(thiophen-3-ylmethoxy)-5,6-dihydrobenzo[h]quinazolin-2-amine], the Ki [1, 5] is reported as < 100 nM, the IC50 [2, 6] is reported as < 200 nM and the Ki [3] is reported as < 100 nM. The IC50 [4] was < 200 nM.
`Nc1nc2c(c(N3CCN(CCOC[C@H]4CC[C@@H](C(=O)O)CC4)CC3)n1)CCc1cc(OCc3ccc(Cl)cc3)ccc1-2` [Example 12, cis-4-((2-(4-(2-amino-8-((4-chlorobenzyl)oxy)-5,6-dihydrobenzo[h]quinazolin-4-yl)piperazin-1-yl)ethoxy)methyl)cyclohexane-1-carboxylic acid] was tested, and the Ki [1, 5] was < 100 nM, the IC50 [2, 6] was 200 to 2000 nM and the Ki [3] was < 100 nM. The IC50 [4] was < 200 nM.
`Nc1nc2c(c(N3CCN(CCOC[C@H]4CC[C@H](C(=O)O)CC4)CC3)n1)CCc1cc(OCc3ccc(Cl)cc3)ccc1-2` [Example 13, trans-4-((2-(4-(2-amino-8-((4-chlorobenzyl)oxy)-5,6-dihydrobenzo[h]quinazolin-4-yl)piperazin-1-yl)ethoxy)methyl)cyclohexane-1-carboxylic acid] was tested, and the Ki [1, 5] was < 100 nM, the IC50 [2, 6] was 200 to 2000 nM and the Ki [3] was < 100 nM. For the same molecule, the IC50 [4] was < 200 nM.
In the case of `Nc1nc2c(c(N3CCN(CCO[C@H]4C[C@@H](C(=O)O)C4)CC3)n1)CCc1cc(OCc3ccc(Cl)cc3)ccc1-2` [Example 14, cis-3-(2-(4-(2-amino-8-((4-chlorobenzyl)oxy)-5,6-dihydrobenzo[h]quinazolin-4-yl)piperazin-1-yl)ethoxy)cyclobutane-1-carboxylic acid], the Ki [1, 5] is reported as < 100 nM, the IC50 [2, 6] is reported as 200 to 2000 nM and the Ki [3] is reported as < 100 nM. The IC50 [4] was < 200 nM.
In the case of `Nc1nc2c(c(N3CCN(CCOCCOCc4nn[nH]n4)CC3)n1)CCc1cc(OCc3ccc(Cl)cc3)ccc1-2` [Example 21, 4-(4-(2-(2-((tetrazol-5-yl)methoxy)ethoxy)ethyl)piperazin-1-yl)-8-((4-chlorobenzyl)oxy)-5,6-dihydrobenzo[h]quinazolin-2-amine], the Ki [1, 5] is reported as < 100 nM, the IC50 [2, 6] is reported as 200 to 2000 nM and the Ki [3] is reported as < 100 nM. The IC50 [4] was < 200 nM.
For `Nc1nc2c(c(N3CCN(CCOCc4nn[nH]n4)CC3)n1)CCc1cc(OCc3ccc(Cl)cc3)ccc1-2` [Example 22, 4-(4-(2-((tetrazol-5-yl)methoxy)ethyl)piperazin-1-yl)-8-((4-chlorobenzyl)oxy)-5,6-dihydrobenzo[h]quinazolin-2-amine], the Ki [1, 5] was < 100 nM, the IC50 [2, 6] was 200 to 2000 nM and the Ki [3] was < 100 nM. For the same molecule, the IC50 [4] was < 200 nM.
For `Nc1nc2c(c(N3CCN(CCOC[C@H]4CC[C@H](C(=O)O)CC4)CC3)n1)CCc1cc(OCc3ccc(OC(F)(F)F)cc3)ccc1-2` [Example 29, trans-4-((2-(4-(2-amino-8-((4-(trifluoromethoxy)benzyl)oxy)-5,6-dihydrobenzo[h]quinazolin-4-yl)piperazin-1-yl)ethoxy)methyl)cyclohexane-1-carboxylic acid], the Ki [1, 5] was < 100 nM, the IC50 [2, 6] was < 200 nM and the Ki [3] was < 100 nM. For the same molecule, the IC50 [4] was < 200 nM.
For `C[C@]1(C(=O)O)C[C@H](OCCN2CCN(c3nc(N)nc4c3CCc3cc(OCc5ccc(OC(F)(F)F)cc5)ccc3-4)CC2)C1` [Example 32, trans-3-(2-(4-(2-amino-8-((4-(trifluoromethoxy)benzyl)oxy)-5,6-dihydrobenzo[h]quinazolin-4-yl)piperazin-1-yl)ethoxy)-1-methylcyclobutane-1-carboxylic acid], the Ki [1, 5] was < 100 nM, the IC50 [2, 6] was < 200 nM and the Ki [3] was < 100 nM. The IC50 [4] was < 200 nM.
For `Nc1nc2c(c(N3CCN(CCO[C@H]4C[C@@H](CC(=O)O)C4)CC3)n1)CCc1cc(OCc3ccc(OC(F)(F)F)cc3)ccc1-2` [Example 36, cis-2-(3-(2-(4-(2-amino-8-((4-(trifluoromethoxy)benzyl)oxy)-5,6-dihydrobenzo[h]quinazolin-4-yl)piperazin-1-yl)ethoxy)cyclobutyl)acetic acid], the Ki [1, 5] was < 100 nM, the IC50 [2, 6] was < 200 nM and the Ki [3] was < 100 nM. The IC50 [4] was < 200 nM.
In the case of `Nc1nc2c(c(N3CCN(CCO[C@@H]4CO[C@@H](C(=O)O)C4)CC3)n1)CCc1cc(OCc3ccc(OC(F)(F)F)cc3)ccc1-2` [Example 37, (2R,4S)-4-(2-(4-(2-amino-8-((4-(trifluoromethoxy)benzyl)oxy)-5,6-dihydrobenzo[h]quinazolin-4-yl)piperazin-1-yl)ethoxy)tetrahydrofuran-2-carboxylic acid], the Ki [1, 5] is reported as < 100 nM, the IC50 [2, 6] is reported as < 200 nM and the Ki [3] is reported as < 100 nM. For the same molecule, the IC50 [4] was < 200 nM.
With `NC(=O)N1CC(COCCN2CCN(c3nc(N)nc4c3CCc3cc(OCc5ccc(OC(F)(F)F)cc5)ccc3-4)CC2)C1` [Example 39, 3-((2-(4-(2-amino-8-((4-(trifluoromethoxy)benzyl)oxy)-5,6-dihydrobenzo[h]quinazolin-4-yl)piperazin-1-yl)ethoxy)methyl)azetidine-1-carboxamide] the Ki [1, 5] was < 100 nM, the IC50 [2, 6] was < 200 nM and the Ki [3] was < 100 nM. For the same molecule, the IC50 [4] was < 200 nM.
`CN1CCN(c2nc(N)nc3c2CCc2cc(NS(=O)(=O)c4ccc(Cl)cc4)ccc2-3)CC1` [Example 42, N-(2-amino-4-(4-methylpiperazin-1-yl)-5,6-dihydrobenzo[h]quinazolin-8-yl)-4-chlorobenzenesulfonamide] was tested, and the Ki [1, 5] was < 100 nM, the IC50 [2, 6] was 200 to 2000 nM and the Ki [3] was < 100 nM. For the same molecule, the IC50 [4] was < 200 nM.
With `CN1CCN(c2nc(N)nc3c2CCc2cc(NS(=O)(=O)c4ccc(OC(F)(F)F)cc4)ccc2-3)CC1` [Example 54, N-(2-amino-4-(4-methylpiperazin-1-yl)-5,6-dihydrobenzo[h]quinazolin-8-yl)-4-(trifluoromethoxy)benzenesulfonamide] the Ki [1, 5] was < 100 nM, the IC50 [2, 6] was 200 to 2000 nM and the Ki [3] was < 100 nM. The IC50 [4] was < 200 nM.
With `CN(C)[C@H]1CCN(c2nc(N)nc3c2CCc2cc(OCc4ccccc4)ccc2-3)C1` [Example 102, (S)-8-(benzyloxy)-4-(3-(dimethylamino)pyrrolidin-1-yl)-5,6-dihydrobenzo[h]quinazolin-2-amine] the Ki [1, 5] was < 100 nM, the IC50 [2, 6] was < 200 nM and the Ki [3] was 100 to 500 nM. For the same molecule, the IC50 [4] was 200 to 2000 nM.
For `CS(=O)(=O)NCCOCCOCCN1CCN(c2nc(N)nc3c2CCc2cc(OCc4ccc(Cl)cc4)ccc2-3)CC1` [Example 111, N-(2-(2-(2-(4-(2-amino-8-((4-chlorobenzyl)oxy)-5,6-dihydrobenzo[h]quinazolin-4-yl)piperazin-1-yl)ethoxy)ethoxy)ethyl)methanesulfonamide dihydrochoride], the Ki [1, 5] was < 100 nM, the IC50 [2, 6] was < 200 nM and the Ki [3] was < 100 nM. The IC50 [4] was < 200 nM.
